Data on 16 substances can be found in patent US20240368668A1, “SUBSTRATES AND BIOMARKERS OF ADAMTS7” (The Broad Institute, Inc., priority 2021, published 2024).

The test system of one assay is mouse ADAMTS7. Description: TMT10 TAILS N-terminomics, HUVEC experiment (process replicates, trypsin/AspN digest). In kind it is cell-based, human. The note with it: HUVEC TAILS HC; log fold change of N-terminal peptide, Ad-mADAMTS7 WT over EQ. The source says:
ADAMTS7 Expression, Cell Culture and Preparation of the Secreted Proteins—Full-length mouse Adamts7 1-1857 (Uniprot Q68SA9, WT or E373Q catalytic mutant) with a carboxyl terminal 3xFLAG tag was used to generate custom adenoviruses as previously described. Adeno-CMV-Luciferase (Ad-Luc) from Vector Biolabs was used as a negative control. Human Coronary Artery Smooth Muscle Cells (HCA-SMC) were obtained from Lonza and expanded in Lonza SmGM-2 media in 15 cm tissue culture plates. Twenty-four hours before media collection, near confluent plates were transduced with 50 MOI adenovirus and switched to Lonza Basal SM media with volumes of 20 ml per 15 cm plate. Expression of the Flag tagged ADAMTS7 was confirmed from the media using western blot and detected using the anti-Flag M2-HRP antibody (Sigma, A8592). Collected media was processed by adding protease inhibitors (1 mM EDTA and 1 mM PMSF) and clarified by 500 g×5 min spin at 4 C to pellet cell debris. Cell media supernatants were then passed through a 0.22 um filter and kept chilled. Processed media was then concentrated 50-100× using 3 kDa Centricon Plus-70 filter unit, spun at 3,500 g×60 min at 4 C. Approximately 10% of the processed, concentrated media was set aside for total secretome proteolytic analysis. The remaining 90% of the processed, concentrated media was buffer exchanged into 50 mM HEPES pH 8.0, 150 mM NaCl (2×50 ml) using the 3 kDa Centricon Plus-70 filter unit and concentrated to >2 mg/ml to serve as input for the TAILS experiment. Secretome and TAILS input samples were stored at −80° C.
For the first experiment, referred to as SMC1, 120 ml of media from 6×15 cm dishes was pooled from each condition (Luc, WT, EQ) and processed to produce three separate inputs for the TAILS experiment. Luc, WT and EQ inputs from the SMC1 experiment were each divided into triplicate 400 ug samples to generate technical replicate TAILS data. For the second experiment, referred to as SMC2, media was processed separately in triplicate for each condition (Luc1, Luc2, Luc3, WT1, WT2, WT3, EQ1, EQ2, EQ3) using 60 ml of media from 3×15 cm dishes for each process replicate. Inputs from the SMC2 experiment used process replicates of 300 ug each to generate TAILS data. The third experiment used input from cultured Human umbilical vein endothelial cells (HUVEC) from Lifeline Cell Technology grown in VascuLife Media and transduced in Lifeline Basal EC (+bFGF2 10 ng/ml). The HUVEC experiment used the same strategy as the SMC2 experiment, with 40 ml of media from 2×15 cm dishes for each process replicate and used 200 ug each to generate TAILS data. Inputs for process replicate experiments were restricted to the lowest concentration from the 9 parallel samples for SMC2 or HUVEC.
TMT10 isotopic labeling and negative selection of non-labeled peptides-Sample preparation was performed based on the TAILS protocol from the Overall lab with some modifications. From a single experiment, nine parallel protein samples in 50 mM HEPES pH 8.0, 150 mM NaCl were separately denatured with guanidinium chloride (Sigma, G4505) to reach a final concentration of 2.5M guanidinium chloride and 250 mM HEPES and incubated at 65° C. for 15 min. Reduction was achieved through addition of tris(2-carboxylethyl) phosphine (TCEP) at a final concentration of […] and incubated at 65° C. for 45 min. Alkylation reaction was performed with addition of iodoacetamide (IAA, Sigma, A3221) to a final concentration of 10 mM IAA for 15 min at room temperature in the dark. Following denaturation, reduction and alkylation steps, ten percent of each of the nine parallel protein samples was removed and combined to serve as a pooled reference. Isobaric tags were added to free amine groups using the TMT10plex Isobaric Mass Tagging Kit (ThermoFisher, 90113) with TMT channels randomly assigned to the nine samples and TMT 131 assigned to the pooled reference. […]
Regarding “AEBP1_37 (FLEGFLSELEPEPR; listed as Homo sapiens)”, the logFC.mWT.over.mEQ turned out to be 4.34. The same measure, in the same setting: with “EFEMP1_124 (AVAGPEMQTGR; listed as Homo sapiens)” the figure was 3.31. Same read-out and setting: with “FBN1_29 (LEAGNVKETR; listed as Homo sapiens)” the figure was 3.91; with “FLNA_1285 (LTQTGGPHVKAR; listed as Homo sapiens)”, 3.81. “FN1_36 (MVQPQSPVAVSQSKPGCYDNGKHYQINQQWER; listed as Homo sapiens)” returned a logFC.mWT.over.mEQ of 3.45. Still for that read-out and setting: with “FN1_40 (QSPVAVSQSKPGCYDNGKHYQINQQWER; listed as Homo sapiens)” the figure was 2.96; with “FN1_886 (NQESTPVVIQQETTGTPR; listed as Homo sapiens)”, 2.04; with “FN1_1143 (LTPGVEYVYTIQVLR; listed as Homo sapiens)”, 3.68. “FN1_1656 (SSSPVTGYR; listed as Homo sapiens)” returned a logFC.mWT.over.mEQ of 1.63. Same read-out and setting: the result for “HSPG2_2331 (ANLAYPAGSTQPIR; listed as Homo sapiens)” reads 1.73; that for “IGFBP7_101 (AAGGPGVSGVCVCKSR; listed as Homo sapiens)”, 1.89. As for “LOXL2_37 (FQQPAPEYHQPQAPANVAKIQLR; listed as Homo sapiens)”, the logFC.mWT.over.mEQ was determined as 3.48. Still for that read-out and setting: the result for “LOX_124 (WFQAGYSTSR; listed as Homo sapiens)” reads 3.35.

Substance “LTBP1_393 (LTATNFR; listed as Homo sapiens)” had a logFC.mWT.over.mEQ of 3.33.

Staying with this assay, now noted: HUVEC experiment; log fold change, mouse ADAMTS7 WT over EQ.
“EFEMP1_125 (VAGPEMQTGR; listed as Homo sapiens)”: the “HUVEC logFC.mWT.over.mEQ” value is listed as 2.45. Still for that read-out and setting: the result for “FN1_886 (NQESTPVVIQQETTGTPR; listed as Homo sapiens)” reads 3.68; that for “HSPG2_275 (LLPGSVR; listed as Homo sapiens)”, 0.77.
